Where two headings read alike, the source gives them in different places. Non-standard residues stand in square brackets, D forms with d. Residues, ends and D or L forms follow the SMILES beside them. ξ: configuration not given here. Phe(4-NO2) = N[C@@H](Cc1ccc([N+](=O)[O-])cc1)C(=O)O; Phe(4-tBu) = CC(C)(C)c1ccc(C[C@H](N)C(=O)O)cc1; Phe(4-Cl) = N[C@@H](Cc1ccc(Cl)cc1)C(=O)O; 2Nal = N[C@@H](Cc1ccc2ccccc2c1)C(=O)O; NMeF = CN[C@@H](Cc1ccccc1)C(=O)O; Tic = O=C(O)[C@@H]1Cc2ccccc2CN1; 2Thi = N[C@@H](Cc1cccs1)C(=O)O; ξPhg = NC(C(=O)O)c1ccccc1

The target of the assay is T1, human QRFPR (hQRFPR) (Homo sapiens, UniProt Q96P65).
T1 construct: expressed in transfected cells; host or cells: CHO cells, stably transfected with hQRFPR (G418 selection) and Gα16 (hygromycin B selection)
T1 sequence (Q96P65 1-431): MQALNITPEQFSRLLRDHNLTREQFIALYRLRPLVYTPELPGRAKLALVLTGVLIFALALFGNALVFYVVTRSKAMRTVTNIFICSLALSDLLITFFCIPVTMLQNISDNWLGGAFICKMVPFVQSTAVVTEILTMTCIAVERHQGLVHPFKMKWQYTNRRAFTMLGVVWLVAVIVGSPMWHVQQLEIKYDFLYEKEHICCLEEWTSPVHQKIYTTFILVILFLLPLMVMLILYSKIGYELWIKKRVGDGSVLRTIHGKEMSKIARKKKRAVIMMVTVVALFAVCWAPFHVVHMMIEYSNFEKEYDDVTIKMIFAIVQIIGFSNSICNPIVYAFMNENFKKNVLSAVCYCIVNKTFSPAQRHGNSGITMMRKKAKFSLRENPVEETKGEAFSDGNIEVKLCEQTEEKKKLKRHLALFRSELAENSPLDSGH
The experiment in a line: Calcium mobilization assay, agonist mode ([Ca2+]i in Gα16-hQRFPR-transfected CHO cells). It counts as cell-based. How it is done:
Stably transfected hQRFPR CHO cells were obtained as previously described. The cells were maintained in F-12 nutrient mixture (Ham-F12) medium supplemented with 10% fetal bovine serum, 2 mM glutamine, and penicillin-streptomycin. Expression of Gα16 cells was maintained using selection antibiotic hygromycin B (200 µg/mL) and that of hQRFPR using geneticin G418 (500 µg/mL) (Life Technologies, Villebon-Sur-Yvette, France) in a humidified 5% CO2 atmosphere at 37 °C.
Changes in intracellular Ca^2+ concentrations induced by 26RFa(20–26) analogs in CHO-Gα16-hQRFPR-transfected cells were measured on a benchtop scanning fluorometer Flexstation III (Molecular Devices, Sunnyvale, CA, USA) as previously described. Briefly, 96-well assay black plates with clear bottoms (Corning international, Avon, France) were seeded at a density of 40,000 cells/well 24 h prior to assay. For profiling agonistic experiments, cells were loaded with 2 µM Fluo-4 acetoxymethyl ester (AM) (Invitrogen) for 1 h in the presence of 0.01% pluronic acid, washed thrice, and incubated for 30 min with standard HBSS containing 2.5 mM probenecid and 5 mM HEPES. Compounds to be tested were added at final concentrations ranging from 10^−11 to 10^−5 M in HBSS, and the fluorescence intensity was measured during 3 min. To evaluate the antagonistic potency of the test compounds, cells were incubated with each compound over 15 min after Fluo-4 AM loading. Then, during fluorescence recording, a pulse of 26RFa was administered at a final concentration of 10^−7 M. After subtraction of the mean fluorescence background, the baseline was normalized to 100%. Fluorescence peak values were determined for each concentration of compound.
Calcium experiments were performed in triplicate, and data, expressed as mean ± SEM of at least three distinct experiments, were analyzed with the Prism 8.0 software (Graphpad Software, San Diego, CA, USA). EC50 and the IC50 values were determined from concentration–response curves using a sigmoidal dose–response fit with variable slope from at least three independent determinations. Differences between 26RFa(20–26) and analog activities were analyzed by the Mann–Whitney test. p values < 0.05 were considered significant.
Background: A change in cytosolic calcium serves as a functional read-out for many receptors and channels.

Setting [1] is: [Ca2+]i mobilization in Gα16-hQRFPR-transfected CHO cells, mean of at least three independent experiments performed in triplicate, read-out: EC50.
[2] abbreviates: single prototype curve, triplicate, basal [Ca2+]i mobilization, read-out: EC50 calculated from representative dose–response curves (Figure 3).

For orientation: EC50 means the midpoint of the concentration-response curve. In the case of `N=C(N)NCCC[C@H](NC(=O)[C@H](Cc1ccccc1)NC(=O)[C@H](CO)NC(=O)[C@H](Cc1cccs1)NC(=O)CNC(=O)CN)C(=O)N[C@@H](Cc1ccccc1)C(N)=O` [Compound 2, [Thi^22]26RFa(20–26)] (H-GG[2Thi]SFRF-NH2), the EC50 under setting [1] amounted to 3160 nM.

With `N=C(N)NCCC[C@H](NC(=O)[C@H](Cc1cccs1)NC(=O)[C@H](CO)NC(=O)[C@H](Cc1ccccc1)NC(=O)CNC(=O)CN)C(=O)N[C@@H](Cc1ccccc1)C(N)=O` [Compound 3, [Thi^24]26RFa(20–26)] (H-GGFS[2Thi]RF-NH2), the half-maximal effective concentration (EC50) under setting [1] amounted to 2530 nM. On to `N=C(N)NCCC[C@H](NC(=O)[C@H](Cc1ccccc1)NC(=O)[C@H](CO)NC(=O)[C@H](Cc1ccccc1)NC(=O)CNC(=O)CN)C(=O)N[C@@H](Cc1cccs1)C(N)=O` [Compound 4, [Thi^26]26RFa(20–26)] (H-GGFSFR[2Thi]-NH2), for which the EC50 under setting [1] was 7230 nM. As to `N=C(N)NCCC[C@H](NC(=O)[C@H](Cc1ccccc1)NC(=O)[C@H](CO)NC(=O)[C@H](Cc1ccc2ccccc2c1)NC(=O)CNC(=O)CN)C(=O)N[C@@H](Cc1ccccc1)C(N)=O` [Compound 5, [2Nal^22]26RFa(20–26)] (H-GG[2Nal]SFRF-NH2), under setting [1], the EC50 turned out to be 1150 nM. On to `N=C(N)NCCC[C@H](NC(=O)[C@H](Cc1ccc2ccccc2c1)NC(=O)[C@H](CO)NC(=O)[C@H](Cc1ccccc1)NC(=O)CNC(=O)CN)C(=O)N[C@@H](Cc1ccccc1)C(N)=O` [Compound 6, [2Nal^24]26RFa(20–26)] (H-GGFS[2Nal]RF-NH2), for which the EC50 under setting [1] is 15300 nM. Still for that read-out and setting: in the case of `N=C(N)NCCC[C@H](NC(=O)[C@H](Cc1ccccc1)NC(=O)[C@H](CO)NC(=O)[C@H](Cc1ccccc1)NC(=O)CNC(=O)CN)C(=O)N[C@@H](Cc1ccc2ccccc2c1)C(N)=O` [Compound 7, [2Nal^26]26RFa(20–26)] (H-GGFSFR[2Nal]-NH2) it was 3790 nM; in that of `CC(C)(C)c1ccc(C[C@H](NC(=O)[C@H](CO)NC(=O)[C@H](Cc2ccccc2)NC(=O)CNC(=O)CN)C(=O)N[C@@H](CCCNC(=N)N)C(=O)N[C@@H](Cc2ccccc2)C(N)=O)cc1` [Compound 12, [ptBuPhe^24]26RFa(20–26)] (H-GGFS[Phe(4-tBu)]RF-NH2), more than 10000 nM. Take `CC(C)(C)c1ccc(C[C@H](NC(=O)[C@H](CCCNC(=N)N)NC(=O)[C@H](Cc2ccccc2)NC(=O)[C@H](CO)NC(=O)[C@H](Cc2ccccc2)NC(=O)CNC(=O)CN)C(N)=O)cc1` [Compound 13, [ptBuPhe^26]26RFa(20–26)] (H-GGFSFR[Phe(4-tBu)]-NH2): the EC50 by setting is: under setting [1], 1040 nM; under setting [2], 1080 nM. On to `N=C(N)NCCC[C@H](NC(=O)[C@H](Cc1ccccc1)NC(=O)[C@H](CO)NC(=O)[C@H](Cc1ccc(Cl)cc1)NC(=O)CNC(=O)CN)C(=O)N[C@@H](Cc1ccccc1)C(N)=O` [Compound 14, [Pcp^22]26RFa(20–26)] (H-GG[Phe(4-Cl)]SFRF-NH2), for which the EC50 under setting [1] amounted to 5000 nM. Take `N=C(N)NCCC[C@H](NC(=O)[C@H](Cc1ccc(Cl)cc1)NC(=O)[C@H](CO)NC(=O)[C@H](Cc1ccccc1)NC(=O)CNC(=O)CN)C(=O)N[C@@H](Cc1ccccc1)C(N)=O` [Compound 15, [Pcp^24]26RFa(20–26)] (H-GGFS[Phe(4-Cl)]RF-NH2): under setting [1], the EC50 stood at 850 nM.

Regarding `N=C(N)NCCC[C@H](NC(=O)[C@H](Cc1ccccc1)NC(=O)[C@H](CO)NC(=O)[C@H](Cc1ccccc1)NC(=O)CNC(=O)CN)C(=O)N[C@@H](Cc1ccc(Cl)cc1)C(N)=O` [Compound 16, [Pcp^26]26RFa(20–26)] (H-GGFSFR[Phe(4-Cl)]-NH2), the EC50 reads like this: under setting [1], 457 nM; under setting [2], 416 nM. Take `N=C(N)NCCC[C@H](NC(=O)[C@H](Cc1ccccc1)NC(=O)[C@H](CO)NC(=O)[C@H](Cc1ccc([N+](=O)[O-])cc1)NC(=O)CNC(=O)CN)C(=O)N[C@@H](Cc1ccccc1)C(N)=O` [Compound 17, [pNO2Phe^22]26RFa(20–26)] (H-GG[Phe(4-NO2)]SFRF-NH2): the EC50 under setting [1] amounted to 2130 nM. On to `N=C(N)NCCC[C@H](NC(=O)[C@H](Cc1ccc([N+](=O)[O-])cc1)NC(=O)[C@H](CO)NC(=O)[C@H](Cc1ccccc1)NC(=O)CNC(=O)CN)C(=O)N[C@@H](Cc1ccccc1)C(N)=O` [Compound 18, [pNO2Phe^24]26RFa(20–26)] (H-GGFS[Phe(4-NO2)]RF-NH2), for which, under setting [1], the EC50 was more than 10000 nM.

Take `N=C(N)NCCC[C@H](NC(=O)[C@H](Cc1ccccc1)NC(=O)[C@H](CO)NC(=O)[C@H](Cc1ccccc1)NC(=O)CNC(=O)CN)C(=O)N[C@@H](Cc1ccc([N+](=O)[O-])cc1)C(N)=O` [Compound 19, [pNO2Phe^26]26RFa(20–26)] (H-GGFSFR[Phe(4-NO2)]-NH2): the EC50 reads like this: under setting [1], 491 nM; under setting [2], 489 nM. Consider `N=C(N)NCCC[C@H](NC(=O)[C@H](Cc1ccccc1)NC(=O)[C@H](CO)NC(=O)C(NC(=O)CNC(=O)CN)c1ccccc1)C(=O)N[C@@H](Cc1ccccc1)C(N)=O` (some centres unmarked) [Compound 20, [Phg^22]26RFa(20–26)] (H-GG[ξPhg]SFRF-NH2), for which the EC50 under setting [1] amounted to 5010 nM. On to `N=C(N)NCCC[C@H](NC(=O)C(NC(=O)[C@H](CO)NC(=O)[C@H](Cc1ccccc1)NC(=O)CNC(=O)CN)c1ccccc1)C(=O)N[C@@H](Cc1ccccc1)C(N)=O` (some centres unmarked) [Compound 21, [Phg^24]26RFa(20–26)] (H-GGFS[ξPhg]RF-NH2), for which the EC50 under setting [1] is more than 10000 nM. Same read-out and setting: in the case of `N=C(N)NCCC[C@H](NC(=O)C(NC(=O)[C@H](CO)NC(=O)[C@H](Cc1ccccc1)NC(=O)CNC(=O)CN)c1ccccc1)C(=O)N[C@@H](Cc1ccccc1)C(N)=O` (some centres unmarked) [Compound 22, [Phg^24]26RFa(20–26)] (H-GGFS[ξPhg]RF-NH2) it was more than 10000 nM; in that of `N=C(N)NCCC[C@H](NC(=O)[C@H](Cc1ccccc1)NC(=O)[C@H](CO)NC(=O)[C@H](Cc1ccccc1)NC(=O)CNC(=O)CN)C(=O)NC(C(N)=O)c1ccccc1` (some centres unmarked) [Compound 23, [Phg^26]26RFa(20–26)] (H-GGFSFR[ξPhg]-NH2), more than 10000 nM. As for `N=C(N)NCCC[C@H](NC(=O)[C@H](Cc1ccccc1)NC(=O)[C@H](CO)NC(=O)[C@H](Cc1ccccc1)NC(=O)CNC(=O)CN)C(=O)NC(C(N)=O)c1ccccc1` (some centres unmarked) [Compound 24, [Phg^26]26RFa(20–26)] (H-GGFSFR[ξPhg]-NH2), the EC50 under setting [1] is more than 10000 nM. In the case of `CN(C(=O)CNC(=O)CN)[C@@H](Cc1ccccc1)C(=O)N[C@@H](CO)C(=O)N[C@@H](Cc1ccccc1)C(=O)N[C@@H](CCCNC(=N)N)C(=O)N[C@@H](Cc1ccccc1)C(N)=O` [Compound 25, [NMePhe^22]26RFa(20–26)] (H-GG[NMeF]SFRF-NH2), the EC50 is, setting by setting: under setting [1], 15100 nM; ([Ca2+]i mobilization, N-methylated analogs, read-out: EC50) more than 10000 nM. On to `CN(C(=O)[C@H](CO)NC(=O)[C@H](Cc1ccccc1)NC(=O)CNC(=O)CN)[C@@H](Cc1ccccc1)C(=O)N[C@@H](CCCNC(=N)N)C(=O)N[C@@H](Cc1ccccc1)C(N)=O` [Compound 26, [NMePhe^24]26RFa(20–26)] (H-GGFS[NMeF]RF-NH2), for which, under setting [1], the EC50 worked out at 1360 nM.

Turning to `CN(C(=O)[C@H](CCCNC(=N)N)NC(=O)[C@H](Cc1ccccc1)NC(=O)[C@H](CO)NC(=O)[C@H](Cc1ccccc1)NC(=O)CNC(=O)CN)[C@@H](Cc1ccccc1)C(N)=O` [Compound 27, [NMePhe^26]26RFa(20–26)] (H-GGFSFR[NMeF]-NH2), the EC50 under setting [1] is more than 10000 nM. For `N=C(N)NCCC[C@H](NC(=O)[C@H](Cc1ccccc1)NC(=O)[C@H](CO)NC(=O)[C@@H]1Cc2ccccc2CN1C(=O)CNC(=O)CN)C(=O)N[C@@H](Cc1ccccc1)C(N)=O` [Compound 28, [Tic^22]26RFa(20–26)] (H-GG[Tic]SFRF-NH2), the EC50 is, setting by setting: under setting [1], 327 nM; under setting [2], 305 nM. Turning to `N=C(N)NCCC[C@H](NC(=O)[C@@H]1Cc2ccccc2CN1C(=O)[C@H](CO)NC(=O)[C@H](Cc1ccccc1)NC(=O)CNC(=O)CN)C(=O)N[C@@H](Cc1ccccc1)C(N)=O` [Compound 29, [Tic^24]26RFa(20–26)] (H-GGFS[Tic]RF-NH2), under setting [1], the EC50 was more than 10000 nM.

The record behind these values is PMC8307317, “Point-Substitution of Phenylalanine Residues of 26RFa Neuropeptide: A Structure-Activity Relationship Study” (Molecules, 2021).
